Tested on: plasma membrane of living cells
Assay: NIR cellular microscopy of living cells
Assay type: cell-based
Source text: Without being limited by theory, PanLN and PanLN-forte are believed unlikely to directly bind myofilaments.

| Compound | crossing of the plasma membrane of living cells |
| --- | --- |
| CC1(C)C(/C=C/C2=C(Oc3ccc(CCC(=O)O)cc3)C(=C/C=C3/N(CCC[N+](C)(C)C)c4ccccc4C3(C)C)/CCC2)=[N+](CCC[N+](C)(C)C)c2ccccc21 [PanLN, 2-((E)-2-((E)-2-(4-(2-carboxyethyl)phenoxy)-3-((E)-2-(3,3-dimethyl-1-(3-(trimethylammonio)propyl)indolin-2-ylidene)ethylidene)cyclohex-1-enyl)vinyl)-3,3-dimethyl-1-(3-(trimethylammonio)propyl)-3H-indolium] | does not appear to cross the plasma membrane |
| CC1(C)C(/C=C/C2=C(c3ccc(CCC(=O)O)cc3)C(=C/C=C3/N(CCC[N+](C)(C)C)c4ccccc4C3(C)C)/CCC2)=[N+](CCC[N+](C)(C)C)c2ccccc21 [PanLN-fort, 2-((E)-2-((E)-2-(4-(2-carboxyethyl)phenyl)-3-((E)-2-(3,3-dimethyl-1-(3-(trimethylammonio)propyl)indolin-2-ylidene)ethylidene)cyclohex-1-enyl)vinyl)-3,3-dimethyl-1-(3-(trimethylammonio)propyl)-3H-indolium] | does not appear to cross the plasma membrane |

Source: patent US20260256740A1, “PHARMACEUTICAL COMPOSITION COMPRISING CYCLOHEX-2-ENYLIDENE / 3,3-DIMETHYLINDOLINE COMPOUNDS; METHODS OF TREATING HUMAN DISEASES; AND METHODS OF INDUCING A CALCIUM SENSITIZING EFFECT IN A SUBJECT” (Curadel Surgical Innovations, Inc., priority 2022, published 2026)
